Assay results published in US20230295058A1, “SYSTEMS AND METHODS FOR GENERATION OF HYPERPOLARIZED COMPOUNDS USING PARAHYDROGEN” (NVISION IMAGING TECHNOLOGIES GMBH, priority 2020, published 2023).
Like-named read-outs stand apart in the source and are kept apart here.

Tests used:
variety of cell lines = test: cytotoxicity of clean fumarate samples following precipitation; assay type: cell-based; conditions: precipitated, washed and redissolved samples, even at high concentrations (FIG. 10)
Protocol: FIG. 10 depicts the results of cytotoxicity experiments performed using samples of precipitated, washed and redissolved sodium fumarate generated in accordance with disclosed embodiments
The clean fumarate samples following precipitation were tested for cytotoxicity using a variety of cell lines. FIG. 10 depicts the result of the cell line experiments.

[1] = cited from earlier work

SMILES	cytotoxicity (variety of cell lines)	maximal mole fraction in n-heptane ([1]; 14.8° C.)	maximal mole fraction in n-heptane ([1]; −29.2° C.)
O=C([O-])/C=C/[13C](=O)[O-].[Na+].[Na+] [sodium fumarate, sodium fumarate-1-^13C]	No toxicity was visible	–	–
CC(=O)O [acetic acid]	–	0.935	0.02
